Earlier results on one molecule are cited in patent CN102028697A, “含非离子表面活性剂的拉坦前列素滴眼液及制备方法” (SHANGHAI SINE PHARMACEUTICAL CO Ltd, priority 2009, dated 2011).

The conditions of series [1]: in water.

A value given as a limit tells only on which side of the number the result lay.

Turning to `CC(C)OC(=O)CCC/C=C\C[C@@H]1[C@@H](CC[C@@H](O)CCc2ccccc2)[C@H](O)C[C@@H]1O` [拉坦前列素], the “permissible time at 40℃” value was ≤ 8 days. The solubility result in series [1] is given as “几乎不溶”.
